The values that follow come from patent publication US20250152569A1, “TREATMENT OF CELL PROLIFERATION-ASSOCIATED CONDITIONS USING A COMBINATION OF A CLB-B INHIBITOR AND AN ADDITIONAL THERAPEUTIC AGENT” (HOTSPOT THERAPEUTICS, INC., priority 2022, published 2025).

Holding throughout (set-up): species or system female BALB/c mice
The subject of assay [1] is subcutaneous murine colorectal cancer model CT26.WT. Nature of the assay: In vivo efficacy study, subcutaneous murine colorectal cancer model CT26.WT (Example 4). Conditions: Day 16. As to the method:
The objective of this study was to evaluate preclinically the in vivo therapeutic efficacy of HotSpot Therapeutics's Test Articles in the treatment of the subcutaneous murine Colorectal model CT26.WT in female BALB/c mice. Compound 29 test particles were delivered via PO. Compound 29 was assessed at various dose levels in combination with Oxaliplatin or Cabozantinib. Tumor volumes and body weight were measured three times per week after the initiation of treatment.
The CT26.WT tumor cells were maintained in vitro with RPMI-1640 medium supplemented with 10% fetal bovine serum at 37° C. in an atmosphere of 5% CO2 in air. The cells in exponential growth phase were harvested and quantitated by cell counter before tumor inoculation.
Each mouse was inoculated subcutaneously it the right lower flank region with 5×10^5 tumor cells in 0.1 ml of PBS mixed with Matrigel (1:1) for tumor development.
The randomization started when the mean tumor size reached approximately 86.42 mm^3. 60 mice were enrolled in the study. All animals were randomly allocated to 6 study groups, 10 mice in each group. Randomization was performed based on “Matched distribution” method (StudyDirector™ software, version 3.1.399.19)
The date of randomization was denoted as day 0.
The treatment was initiated on the same day of randomization (day 0) per study design.
After tumor cells inoculation, the animals were checked daily for morbidity and mortality. During routine monitoring, the animals were checked for any effects of tumor growth and treatments on behavior such as mobility, food and water consumption, body weight gain/loss (Body weights were measured twice per week after randomization), eye/hair matting and any other abnormalities. Mortality and observed clinical signs were recorded for individual animals in detail.
Tumor volumes were measured twice per week after randomization in two dimensions using a caliper, and the volume was expressed in mm^3 using the formula: “V=(L×W×W)/2, where V was tumor volume, L was tumor length (the longest tumor dimension) and W was tumor width (the longest tumor dimension perpendicular to L). Dosing as well as tumor and body weight measurements were conducted in a Laminar Flow Cabinet.
The body weights and tumor volumes were measured by using StudyDirector™ software (version 3.1.399.19).
For Group 01 and Group 03 were terminated when the mean tumor volume of the vehicle control group reaches 2000 mm^3 on day 16.
For Group 02, Group 04, Group 05 and Group 06 were performed for 3 weeks. The study was terminated on day 21 (Sep. 21, 2022).
To compare tumor volumes of different groups at a pre-specified day, we first used Bartlett's test to check the assumption of homogeneity of variance across all groups. When the p-value of Bartlett's test was >=0.05, we ran one-way ANOVA to test overall equality of means across all groups. If the p-value of the one-way ANOVA was <0.05, we further performed post hoc testing by running Tukey's HSD (honest significant difference) tests for all pairwise comparisons, and Dunnett's tests for comparing each treatment group with the vehicle group. When the p-value of Bartlett's test was <0.05, we ran Kruskal-Wallis test to test overall equality of medians among all groups. If the p-value the Kruskal-Wallis test was <0.05, we further performed post hoc testing by running Conover's non-parametric test for all pairwise comparisons or for comparing each treatment group with the vehicle group, both with single-step p-value adjustment.
In addition, we performed pairwise comparisons without multiple comparison correction and report nominal/uncorrected p-values directly from Welch's t-test or Mann-Whitney U test at each time point. Specifically, we first used Shapiro Wilk test to check the assumption of normal distribution for each group. When p-values of Shapiro Wilk tests of both groups in a pair are >0.05, we ran Welch's t-test, otherwise we ran Mann-Whitney U test, to obtain nominal p-values. […]

The test system is the same in assay [2]. Nature of the assay: In vivo efficacy study, CT26.WT model, combination with Doxorubicin, Gemcitabine or Paclitaxel (Example 5). As to the method: The objective of this study was to evaluate preclinically the in vivo therapeutic efficacy of Test Articles in the treatment of the subcutaneous murine Colorectal model CT26.WT in female BALB/c mice. Compound 29 test particles were delivered via PO. Compound 29 was assessed at various dose levels in combination with Doxorubicin, Gemcitabine or Paclitaxel. Tumor volumes and body weight were measured three times per week after the initiation of treatment.
The CT26.WT tumor cells will be maintained in vitro with RPMI-1640 medium supplemented with 10% fetal bovine serum at 37° C. in an atmosphere of 5% CO2 in air. The cells in exponential growth phase will be harvested and quantitated by cell counter before tumor inoculation.
Each ach mouse will be inoculated subcutaneously in the right lower flank region with CT26 tumor cells (5×10^5) in 0.1 ml of PBS for tumor development.
The randomization will start when the mean tumor size reaches approximately 80-100 mm^3. […] Randomization will be performed based on “Matched distribution” method/“Stratified” method (Study Director™ software, version 3.1.399.19)/randomized block design. The date of randomization will be denoted as day 0. […]
After tumor cells inoculation, the animals will be checked daily for morbidity and mortality. During routine monitoring, the animals will be checked for any effects of tumor growth and treatments on behavior such as mobility, food and water consumption, body weight gain/loss (Body weights will be measured twice per week after randomization), eye/hair matting and any other abnormalities. Mortality and observed clinical signs will be recorded for individual animals in detail.
Tumor volumes will be measured twice per week after randomization in two dimensions using a caliper, and the volume will be expressed in mm^3 using the formula: “V=(L×W×W)/2, where V is tumor volume, L is tumor length (the longest tumor dimension) and W is tumor width (the longest tumor dimension perpendicular to L). […]
(§1) The body weights and tumor volumes will be measured by using StudyDirector™ software (version 3.1.399.19). […]

Assay [3] has the same test system. Nature of the assay: In vivo efficacy study, CT26.WT model, combination with ALT-803 (Example 6). The settings on record: Compound 29 30 mg/kg p.o. BID in combination with ALT-803 0.2 mg/kg i.p. QW; FIG. 5A, 5B. As to the method: The objective of this study was to evaluate preclinically the in vivo therapeutic efficacy of Test Articles in the treatment of the subcutaneous murine Colorectal model CT26.WT in female BALB/c mice. Compound 29 test particles were delivered via PO. Compound 29 was assessed at various dose levels in combination with ALT-803. Tumor volumes and body weight were measured three times per week after the initiation of treatment.
The CT26.WT tumor cells will be maintained in vitro with RPMI-1640 medium supplemented with 10% fetal bovine serum at 37° C. in an atmosphere of 5% CO2 in air. The cells in exponential growth phase will be harvested and quantitated by cell counter before tumor inoculation. […]
After tumor cells inoculation, the animals will be checked daily for morbidity and mortality. During routine monitoring, the animals will be checked for any effects of tumor growth and treatments on behavior such as mobility, food and water consumption, body weight gain/loss (Body weights will be measured twice per week after randomization), eye/hair matting and any other abnormalities. Mortality and observed clinical signs will be recorded for individual animals in detail. […]
as §1

[4] abbreviates: single agent, Compound 29 60 mg/kg p.o. BID, Oxaliplatin 5 mg/kg i.p. Q4D, Cabozantinib 10 mg/kg p.o. QD.
[5] abbreviates: Compound 29 60 mg/kg p.o. BID in combination with Cabozantinib 10 mg/kg p.o. QD (Group 6).
The mark [6] stands for this setting: Compound 29 60 mg/kg p.o. BID in combination with Oxaliplatin 5 mg/kg i.p. Q4D (Group 5).

`O=C1[O][Pt]2([NH][C@@H]3CCCC[C@H]3[NH]2)[O]C1=O` [Oxaliplatin, reference compound]: in assay [1] (setting [4]), the “T/C (%)” value was determined as 103.27%, the “TGI (%)” value is on record as −3.27% and the “Tumor Volume (mean ± SEM)” value is recorded as 2609.42 ± 203.84 mm^3.
For `COc1cc2nccc(Oc3ccc(NC(=O)C4(C(=O)Nc5ccc(F)cc5)CC4)cc3)c2cc1OC` [Cabozantinib, reference compound] the same measures were 30.55%, 69.45% and 772.01 ± 100.44 mm^3.
With `C[C@H]1CCCN(Cc2cc(C(F)(F)F)c3cn(-c4cccc(C5(Cc6nncn6C)COC5)c4)c(=O)n3c2)C1` [Compound 29], the “effect on tumor inhibition as compared to each of the agents as monotherapies” value in assay [2] (Compound 29 60 mg/kg p.o. BID in combination with Doxorubicin 4 mg/kg i.v. Q4D, FIG. 2A, 2B) is on record as “improved effect on tumor inhibition”; in assay [2] (Compound 29 60 mg/kg p.o. BID in combination with Gemcitabine 5 mg/kg i.p. Q3D, FIG. 3A, 3B), “improved effect on tumor inhibition”; in assay [2] (Compound 29 60 mg/kg p.o. BID in combination with Paclitaxel 20 mg/kg i.p. QW, FIG. 4A, 4B), “improved effect on tumor inhibition”; in assay [3], “improved effect on tumor inhibition”. Moreover, the “T/C (%)” value in assay [1] (setting [5]) came out at 25.45%; in assay [1] (setting [6]), 35.94%; in assay [1] (setting [4]), 56.42%. For the same compound, the “TGI (%)” value was found to be 74.55% in assay [1] (setting [5]), 64.06% in assay [1] (setting [6]) and 43.58% in assay [1] (setting [4]). Besides, the “Tumor Volume (mean ± SEM)” value came out at 643.08 ± 59.79 mm^3 in assay [1] (setting [5]), 908.21 ± 76.22 mm^3 in assay [1] (setting [6]) and 1425.65 ± 232.85 mm^3 in assay [1] (setting [4]).
